IC50 and Affinity data for 32 molecules are collected here from US7678803B2, “Quinazoline derivatives for the treatment of cancer” (Serenex, Inc., priority 2006, dated 2010).

The test system of one assay is PC-3. As to the kind of experiment: PC-3 cell proliferation assay (WST-1). Format: cell-based. Conditions: Homo sapiens; inhibitory activity against PC-3 cell proliferation. The procedure:
A panel of cancer cell lines is obtained from the DCTP Tumor Repository, National Cancer Institute (Frederick, Md.) or ATCC (Rockville, Md.). Cell cultures are maintained in Hyclone RPMI 1640 medium (Logan, Utah) supplemented with 10% fetal bovine serum and 20 mM HEPES buffer, final pH 7.2, at 37° C. with a 5% CO2 atmosphere. Cultures are maintained at sub-confluent densities. Human umbilical vein endothelial cells (HUVEC) are purchased from Clonetics, a division of Cambrex (Walkersville, Md.). Cultures are established from cryopreserved stocks using Clonetics EGM-2 medium supplemented with 20 mM HEPES, final pH 7.2, at 37° C. with a 5% CO2 atmosphere.
For proliferation assays, cells are seeded with the appropriate medium into 96 well plates at 1,000-2,500 cells per well, depending on the cell line, and are incubated overnight. The following day, test compound, DMSO solution (negative control), or Actinomycin D (positive control) is added to the appropriate wells as 10× concentrated stocks prepared in phosphate buffered saline. The cell plates are then incubated for an additional 2-5 days, depending on the cell line, to allow proliferation to occur. To measure cell density, 50 μL of WST-1 solution (Roche Applied Science, IN) diluted 1:5 in phosphate buffered saline is added to each well, and the cells incubated for an additional 1-5 hrs., again depending on the cell line. Optical density is determined for each well at […] using a Tecan GeniosPro plate reader (RTP, NC). The percentage of cell growth is determined by comparing the cell growth in the presence of test compounds to the cells treated with DMSO vehicle (control, 100% growth) and cells treated with Actinomycin D (10 μM, 0% growth). […]

The test system of assay [1] is HSP-90 (heat shock protein 90). The experiment in a line: Determination of affinity for HSP-90 (elution from purine affinity column). Also: key: +++: very high; ++: high; +: moderate. Conditions: relative binding affinity to HSP-90. The procedure: Affinity of test compounds for HSP-90 is determined as follows: Protein mixtures obtained from a variety of organ tissues (for example: spleen, liver and lung) are reversibly bound to a purine affinity column to capture purine-binding proteins, especially HSP-90. […] The elution profile of Formula I compounds is determined by 1-dimensional SDS polyacrylamide gel electrophoresis. Gels are stained with a fluorescent stain such as sypro ruby (a highly sensitive fluorescent protein stain that can readily detect less than 1 fmol of total protein, i.e., less than 0.04 ng for a 40 kDa protein) or silver nitrate. The gels are imaged using a standard flat bed gel imager and the amount of protein estimated by densitometry. The percent of HSP-90 protein eluted from the column at each concentration is determined and IC50 values are calculated from these estimates.

`Cc1cc2c(n1-c1cnc3c(N)ncnc3c1)CC(C)(C)CC2=O` [Compound 38, 1-(4-aminopyrido[3,2-d]pyrimidin-7-yl)-2,6,6-trimethyl-6,7-dihydro-1H-indol-4(5H)-one] yielded an IC50 in the assay on PC-3 of 5 to 50 µM.

In the case of `Cc1cn(-c2ccc3c(N)ncnc3c2)c2c1C(=O)CC(C)(C)C2` [Compound 39, 1-(4-aminoquinazolin-7-yl)-3,6,6-trimethyl-6,7-dihydro-1H-indol-4(5H)-one], in the assay on PC-3, the IC50 lay in the range of 0.5 to 5 µM.

As for `Cc1nc(N)c2ccc(-n3cc(C)c4c3CC(C)(C)CC4=O)cc2n1` [Compound 40, 1-(4-amino-2-methylquinazolin-7-yl)-3,6,6-trimethyl-6,7-dihydro-1H-indol-4(5H)-one], the Affinity entry in assay [1] is “+++”.

As to `Cc1cn(-c2ccc3c(N)nc(N)nc3c2)c2c1C(=O)CC(C)(C)C2` [Compound 41, 1-(2,4-diaminoquinazolin-7-yl)-3,6,6-trimethyl-6,7-dihydro-1H-indol-4(5H)-one], the Affinity result in assay [1] was “+++”.

As to `Cc1cn(-c2ccc3c(N)ncnc3c2F)c2c1C(=O)CC(C)(C)C2` [Compound 43, 1-(4-amino-8-fluoroquinazolin-7-yl)-3,6,6-trimethyl-6,7-dihydro-1H-indol-4(5H)-one], the IC50 with PC-3 fell in the range of 0.5 to 5 µM. Regarding `Cc1cn(-c2ccc3c(Cl)nccc3c2)c2c1C(=O)CC(C)(C)C2` [Compound 44, 1-(1-chloroisoquinolin-6-yl)-3,6,6-trimethyl-6,7-dihydro-1H-indol-4(5H)-one], in assay [1], the Affinity entry is given as “+”. With `Cc1cn(-c2ccc3c(N)ncnc3c2)c2c1C(=O)CCC2` [Compound 45, 1-(4-aminoquinazolin-7-yl)-3-methyl-6,7-dihydro-1H-indol-4(5H)-one], in assay [1], the Affinity entry is reported as “++”.

For `CC1(C)CC(=O)c2c(C(F)(F)F)nn(-c3ccc4c(N)ncc(Br)c4c3)c2C1` [Compound 46, 1-(1-amino-4-bromoisoquinolin-6-yl)-6,6-dimethyl-3-(trifluoromethyl)-6,7-dihydro-1H-indazol-4(5H)-one], the Affinity entry in assay [1] is on record as “+”.

In the assay with PC-3, `Cc1nn(-c2ccc3c(N)ncc(Br)c3c2)c2c1C(=O)CC(C)(C)C2` [Compound 47, 1-(1-amino-4-bromoisoquinolin-6-yl)-3,6,6-trimethyl-6,7-dihydro-1H-indazol-4(5H)-one] came in with a half-inhibitory concentration (IC50) of 5 to 50 µM.

`CC1(C)CC(=O)c2c(C(F)(F)F)nn(-c3ccc4c(N)ncnc4c3)c2C1` [Compound 51, 1-(4-aminoquinazolin-7-yl)-6,6-dimethyl-3-(trifluoromethyl)-6,7-dihydro-1H-indazol-4(5H)-one]: the IC50 in the assay on PC-3 is 5 to 50 µM. In the case of `Cc1cn(-c2ccc3c(N)ncnc3c2OCCN(C)C)c2c1C(=O)CC(C)(C)C2` [Compound 52, 1-(4-amino-8-(2-(dimethylamino)ethoxy)quinazolin-7-yl)-3,6,6-trimethyl-6,7-dihydro-1H-indol-4(5H)-one], the IC50 with PC-3 was in the range of 5 to 50 µM.

As for `CCCCOc1c(-n2cc(C)c3c2CC(C)(C)CC3=O)ccc2c(N)ncnc12` [Compound 53, 1-(4-amino-8-butoxyquinazolin-7-yl)-3,6,6-trimethyl-6,7-dihydro-1H-indol-4(5H)-one], the Affinity result in assay [1] is reported as “+++”.

Consider `CCCCSc1c(-n2cc(C)c3c2CC(C)(C)CC3=O)ccc2c(N)ncnc12` [Compound 54, 1-(4-amino-8-(butylthio)quinazolin-7-yl)-3,6,6-trimethyl-6,7-dihydro-1H-indol-4(5H)-one], for which the IC50 in the assay with PC-3 is 0.5 to 5 µM. Same read-out and setting: as for `CCOc1c(-n2cc(C)c3c2CC(C)(C)CC3=O)ccc2c(N)ncnc12` [Compound 62, 1-(4-amino-8-ethoxyquinazolin-7-yl)-3,6,6-trimethyl-6,7-dihydro-1H-indol-4(5H)-one], the figure is 0.5 to 5 µM. The same measure, in the same setting: with `Cc1cn(-c2ccc3c(N)ncnc3c2F)c2c1C(=O)CC(C)C2` (centres unmarked) [Compound 65, 1-(4-amino-8-fluoroquinazolin-7-yl)-3,6-dimethyl-6,7-dihydro-1H-indol-4(5H)-one] the figure was 0.5 to 5 µM; with `Cc1cn(-c2cnc3c(N)ncnc3c2)c2c1C(=O)CC(C)(C)C2` [Compound 66, 1-(4-aminopyrido[3,2-d]pyrimidin-7-yl)-3,6,6-trimethyl-6,7-dihydro-1H-indol-4(5H)-one], 0.5 to 5 µM.

In the assay with PC-3, `CCCCSc1cc(-n2cc(C)c3c2CC(C)(C)CC3=O)cc2ncnc(N)c12` [Compound 73, 1-(4-amino-5-(butylthio)quinazolin-7-yl)-3,6,6-trimethyl-6,7-dihydro-1H-indol-4(5H)-one] returned an IC50 of 5 to 50 µM.

`COc1cc(COc2cc(-n3cc(C)c4c3CC(C)(C)CC4=O)cc3ncnc(N)c23)cc(OC)c1` [Compound 78, 1-(4-amino-5-(3,5-dimethoxybenzyloxy)quinazolin-7-yl)-3,6,6-trimethyl-6,7-dihydro-1H-indol-4(5H)-one] came in with an IC50 in the assay with PC-3 of 0.5 to 5 µM.

On to `Cc1cn(-c2ccc3c(N)ncnc3c2SCCNCC(C)(C)C)c2c1C(=O)CC(C)(C)C2` [Compound 81, 1-(4-amino-8-(2-(neopentylamino)ethylthio)quinazolin-7-yl)-3,6,6-trimethyl-6,7-dihydro-1H-indol-4(5H)-one], for which, in the assay on PC-3, the IC50 is less than 0.5 µM. Molecule `CC1(C)CC(=O)c2c(CC3CC3)nn(-c3ccc4c(N)ncnc4c3)c2C1` [Compound 83, 1-(4-aminoquinazolin-7-yl)-3-(cyclopropylmethyl)-6,6-dimethyl-6,7-dihydro-1H-indazol-4(5H)-one] displayed an IC50 in the assay on PC-3 of 5 to 50 µM. Consider `Cc1cn(-c2ccc3c(O)ncnc3c2)c2c1C(=O)CC(C)(C)C2` [Compound 90, 1-(4-hydroxyquinazolin-7-yl)-3,6,6-trimethyl-6,7-dihydro-1H-indol-4(5H)-one], for which the IC50 in the assay on PC-3 was less than 0.5 µM.

In the assay with PC-3, `Cc1c2c(n(-c3ccc4c(N)ncnc4c3)c1C)CC(C)(C)CC2=O` [Compound 92, 1-(4-aminoquinazolin-7-yl)-2,3,6,6-tetramethyl-6,7-dihydro-1H-indol-4(5H)-one] displayed an IC50 of less than 0.5 µM. `CC1(C)CC(=O)c2c(C(F)F)nn(-c3ccc4c(N)ncc(C#N)c4c3)c2C1` [Compound 94, 1-amino-6-(3-(difluoromethyl)-6,6-dimethyl-4-oxo-4,5,6,7-tetrahydro-1H-indazol-1-yl)isoquinoline-4-carbonitrile]: the half-inhibitory concentration (IC50) with PC-3 was in the range of 0.5 to 5 µM.

`C/C(=N\O)c1cnc(N)c2ccc(-n3cc(C)c4c3CC(C)(C)CC4=O)cc12` [Compound 102, (E)-1-(1-amino-4-(1-(hydroxyimino)ethyl)isoquinolin-6-yl)-3,6,6-trimethyl-6,7-dihydro-1H-indol-4(5H)-one] came in with an IC50 with PC-3 of 5 to 50 µM.

`Cc1cn(-c2ccc3c(N)ncc(C(N)=O)c3c2)c2c1C(=O)CC(C)(C)C2` [Compound 104, 1-amino-6-(3,6,6-trimethyl-4-oxo-4,5,6,7-tetrahydro-1H-indol-1-yl)isoquinoline-4-carboxamide] yielded an IC50 with PC-3 of 5 to 50 µM. On the same count and under the same terms, with `CC(=O)c1cnc(N)c2ccc(-n3cc(C)c4c3CC(C)(C)CC4=O)cc12` [Compound 107, 1-(4-acetyl-1-aminoisoquinolin-6-yl)-3,6,6-trimethyl-6,7-dihydro-1H-indol-4(5H)-one] the figure was 0.5 to 5 µM. Molecule `Cc1cn(-c2ccc3c(N)ncnc3c2SCCNC(C)(C)C)c2c1C(=O)CC(C)(C)C2` [Compound 110, 1-(4-amino-8-(2-(tert-butylamino)ethylthio)quinazolin-7-yl)-3,6,6-trimethyl-6,7-dihydro-1H-indol-4(5H)-one] gave an IC50 in the assay on PC-3 of 0.5 to 5 µM.

On to `Cc1cn(-c2ccc3c(N)ncc(N)c3c2)c2c1C(=O)CC(C)(C)C2` [Compound 121, 1-(1,4-diaminoisoquinolin-6-yl)-3,6,6-trimethyl-6,7-dihydro-1H-indol-4(5H)-one], for which the IC50 in the assay on PC-3 was 5 to 50 µM. In the assay with PC-3, `Cc1cn(-c2cc(F)c3c(N)nc(N)nc3c2)c2c1C(=O)CC(C)(C)C2` [Compound 126, 1-(2,4-diamino-5-fluoroquinazolin-7-yl)-3,6,6-trimethyl-6,7-dihydro-1H-indol-4(5H)-one] displayed an IC50 of 0.5 to 5 µM. With `Cc1cn(-c2ccc3c(C)nc(N)nc3c2)c2c1C(=O)CC(C)(C)C2` [Compound 128, 1-(2-amino-4-methylquinazolin-7-yl)-3,6,6-trimethyl-6,7-dihydro-1H-indol-4(5H)-one], in the assay with PC-3, the 50% inhibitory concentration (IC50) was less than 0.5 µM. Molecule `Cc1cn(-c2ccc3c(N)ncnc3c2OC2CCOCC2)c2c1C(=O)CC(C)(C)C2` [Compound 133, 1-(4-amino-8-(tetrahydro-2H-pyran-4-yloxy)quinazolin-7-yl)-3,6,6-trimethyl-6,7-dihydro-1H-indol-4(5H)-one] showed an IC50 in the assay with PC-3 of 0.5 to 5 µM. Molecule `Cc1cn(-c2cnc3c(N)nc(N)nc3c2)c2c1C(=O)CC(C)(C)C2` [Compound 139, 1-(2,4-diaminopyrido[3,2-d]pyrimidin-7-yl)-3,6,6-trimethyl-6,7-dihydro-1H-indol-4(5H)-one] had an IC50 with PC-3 of less than 0.5 µM.

One may read the IC50 as the concentration needed to halve the response being measured.
